Our source for the IC50 values is patent US20220098159A1, “CARBAMATE DERIVATIVES AND USES THEREOF” (Nodthera Limited, priority 2019, published 2022).

For the first assay, the system named is IL-1β release upon NLRP3 activation in peripheral blood mononuclear cells (PBMC). Briefly: PBMC IC50 determination assay (inhibition of IL-1β release upon NLRP3 activation). Type of assay: cell-based. To be noted: Homo sapiens, PBMC, read-out: Average PBMC IC50 (μM). Here is the method: The compounds of the present disclosure were tested for their inhibitory activity against IL-1β release upon NLRP3 activation in peripheral blood mononuclear cells (PBMC).
Protocol A. PBMC were isolated from buffy coats by density gradient centrifugation on Histopaque-1077 (Sigma, cat no. 10771). Isolated cells were seeded into the wells of a 96-well plate and incubated for 3 h with lipopolysaccharide (LPS). Following medium exchange, the compounds of the present disclosure were added (a single compound per well) and the cells were incubated for 30 min. Next, the cells were stimulated either with ATP (5 mM) or nigericin (10 μM) for 1 h and the cell culture media from the wells were collected for further analysis.
The release of IL-1β into the media was determined by a quantitative detection of IL-1β in the media using an IL-1β enzyme-linked immunosorbent assay (ELISA) Ready-SET-Go!, eBioscience cat. No. 88-7261-88. Briefly, in a first step, high affinity binding plates (Corning, Costar 9018 or NUNC Maxisorp Cat No. 44-2404) were coated overnight at 4° C. with specific capture antibody included in the kit (anti-human IL-1β ref. 14-7018-68). Subsequently, plates were blocked with blocking buffer for 1 h at room temperature (rt) and after washing with a buffer (PBS with 0.05% Tween-20) incubated with protein standard and culture media. After 2 h of incubation at rt, plates were washed and incubated with biotinylated detection antibody included in the kit (anti-human IL-1β Biotin ref. 33-7110-68) for 1 h at rt. Plates were washed and incubated with HRP-streptavidin for 30 min at rt and washed again. The signal was developed after addition of 3,3′,5,5′-tetramethylbenzidine-peroxidase (TMB) until colour appeared and the reaction was stopped by 2 M H2SO4. A microplate spectrophotometer (BioTek) was used to detect signals with 450 nm. The detection range of IL-1β ELISA was 2-150 ng/ml.
Protocol B. PBMC were isolated from buffy coats by density gradient centrifugation on Histopaque-1077 (Sigma, cat no. 10771). Isolated cells were seeded into the wells (280,000 cells/well) of a 96-well plate and incubated for 3 h with lipopolysaccharide (LPS, 1 μg/ml diluted 1000× from a 1 mg/ml stock solution). The compounds of the present disclosure were added (a single compound per well) and the cells were incubated for 30 min. Next, the cells were stimulated with ATP (5 mM final concentration diluted 20× from a 100 mM stock solution) for 1 h and the cell culture media from the wells were collected for further analysis.
The release of IL-1β into the media was determined by quantitative detection of IL-1β in the media using HTRF®, CisBio cat. No. 62HIL1BPEH. Briefly, cell culture supernatant were dispensed directly into the assay plate containing antibodies labelled with the HTRF® donor and acceptor. A microplate spectrophotometer (BMG) was used to detect signals at 655 nm and 620 nm. The detection range of IL-1β HTRF® was 39-6500 pg/ml.
Broadly, the IC50 is the concentration that gives 50% inhibition. In the case of `CCCC(NC(=O)OC(Cc1ncccn1)C(=O)OC(C)C)c1ccc(C(F)(F)F)cc1` (centres unmarked) [Compound 21, Propan-2-yl 3-(pyrimidin-2-yl)-2-[({1-[4-(trifluoromethyl)phenyl]butyl}carbamoyl)oxy]propanoate], the IC50 was 1 to 3 µM. With `CC(C)OC(=O)[C@@H](Cn1cncn1)OC(=O)N[C@@H](C)c1ccc(C(C)C)cc1` [Compound 13, Propan-2-yl (2R)-2-({[(1S)-1-[4-(propan-2-yl)phenyl]ethyl]carbamoyl}oxy)-3-(1H-1,2,4-triazol-1-yl)propanoate], the IC50 is less than 1 µM. Still for that read-out and setting: the figure for `CC(C)OC(=O)[C@@H](Cn1cncn1)OC(=O)N[C@@H](C)c1ccc(C2CC2)cc1` [Compound 10, Propan-2-yl (2R)-2-({[(1S)-1-(4-cyclopropylphenyl)ethyl]carbamoyl}oxy)-3-(1H-1,2,4-triazol-1-yl)propanoate] is less than 1 µM. Still for that read-out and setting: under `CC(C)OC(=O)[C@@H](Cn1cncn1)OC(=O)N[C@H](C)c1ccc(C(F)(F)F)nc1` [Compound 15, Propan-2-yl (2R)-3-(1H-1,2,4-triazol-1-yl)-2-({[(1R)-1-[6-(trifluoromethyl)pyridin-3-yl]ethyl]carbamoyl}oxy)propanoate] stands 10 to 50 µM; under `CC(C)OC(=O)[C@@H](Cn1cncn1)OC(=O)N[C@@H](C)c1ccc(C(F)(F)F)nc1` [Compound 14, Propan-2-yl (2R)-3-(1H-1,2,4-triazol-1-yl)-2-({[(1S)-1-[6-(trifluoromethyl)pyridin-3-yl]ethyl]carbamoyl}oxy)propanoate], 10 to 50 µM. The same measure, in the same setting: the figure for `CC(C)OC(=O)C(Cc1ncccn1)OC(=O)N[C@@H](C)c1ccc(Cl)c(Cl)c1` (stereo partly drawn) [Compound 2, Propan-2-yl 2-({[(1S)-1-(3,4-dichlorophenyl)ethyl]carbamoyl}oxy)-3-(pyrimidin-2-yl)propanoate] is 10 to 50 µM; for `CCc1ccc([C@H](C)NC(=O)O[C@H](Cn2cncn2)C(=O)OC(C)C)cc1` [Compound 12, Propan-2-yl (2R)-2-({[(1S)-1-(4-ethylphenyl)ethyl]carbamoyl}oxy)-3-(1H-1,2,4-triazol-1-yl)propanoate] it is less than 1 µM.

Still in this assay, the particulars now being: Homo sapiens; PBMC from buffy coats, LPS 3 h, compound 30 min, then ATP (5 mM) or nigericin (10 μM) 1 h; IL-1β in media by ELISA (Protocol A) or HTRF (Protocol B); read-out: Average PBMC IC50.
Turning to `CC(C)OC(=O)[C@@H](Cn1cncn1)OC(=O)N[C@@H](C)c1ccc(C(C)(C)C)cc1` [Compound 6, Propan-2-yl (2R)-2-({[(1S)-1-(4-tert-butylphenyl)ethyl]carbamoyl}oxy)-3-(1H-1,2,4-triazol-1-yl)propanoate], the IC50 was less than 1 µM.

With `CC(C)OC(=O)[C@@H](Cn1cncn1)OC(=O)N[C@@H](C)c1ccc(C(F)(F)F)cc1` [Compound 11, Propan-2-yl (2R)-3-(1H-1,2,4-triazol-1-yl)-2-({[(1S)-1-[4-(trifluoromethyl)phenyl]ethyl]carbamoyl}oxy)propanoate], the IC50 was less than 1 µM. On the same count and under the same terms, the figure for `CC(C)OC(=O)C(Cc1ncccn1)OC(=O)N[C@@H](C)c1ccc(C(F)(F)F)cc1` (stereo partly drawn) [Compound 5, Propan-2-yl 3-(pyrimidin-2-yl)-2-({[(1S)-1-[4-(trifluoromethyl)phenyl]ethyl]carbamoyl}oxy)propanoate] is less than 1 µM; for `Cc1cc(C(F)(F)F)ccc1C(C)NC(=O)OC(Cc1ncccn1)C(=O)OC(C)C` (centres unmarked) [Compound 20, Isopropyl 2-[1-[2-methyl-4-(trifluoromethyl)phenyl]ethylcarbamoyloxy]-3-pyrimidin-2-yl-propanoate] it is less than 1 µM.

Consider `C[C@H](NC(=O)O[C@H](Cc1ncccn1)C(=O)O)c1ccc(C(F)(F)F)cc1Cl` [Compound 26, (2R)-2-({[(1S)-1-[2-Chloro-4-(trifluoromethyl)phenyl]ethyl]carbamoyl}oxy)-3-(pyrimidin-2-yl)propanoic acid], for which the IC50 lay in the range of 3 to 10 µM. On the same count and under the same terms, under `CC(C)OC(=O)C(Cc1ncccn1)OC(=O)N[C@@H](C)c1ccc(C#N)cc1` (stereo partly drawn) [Compound 4, Propan-2-yl 2-({[(1S)-1-(4-cyanophenyl)ethyl]carbamoyl}oxy)-3-(pyrimidin-2-yl)propanoate] stands 1 to 3 µM.

For the compound `CC(C)OC(=O)[C@@H](Cn1cncn1)OC(=O)NC(C)c1ncc(C(F)(F)F)cn1` (stereo partly drawn) [Compound 18, Propan-2-yl (2R)-3-(1H-1,2,4-triazol-1-yl)-2-[({1-[5-(trifluoromethyl)pyrimidin-2-yl]ethyl}carbamoyl)oxy]propanoate], the IC50 lay in the range of 3 to 10 µM.

Consider `CCOC(=O)C(Cn1cccn1)OC(=O)N[C@@H](C)c1ccc(Cl)cc1` (stereo partly drawn) [Compound 1, Ethyl 2-({[(1S)-1-(4-chlorophenyl)ethyl]carbamoyl}oxy)-3-(1H-pyrazol-1-yl)propanoate], for which the IC50 fell in the range of 10 to 50 µM. On the same count and under the same terms, under `CC(C)OC(=O)C(Cc1ncccn1)OC(=O)N[C@@H](C)c1ccc(Cl)cc1` (stereo partly drawn) [Compound 3, Propan-2-yl 2-({[(1S)-1-(4-chlorophenyl)ethyl]carbamoyl}oxy)-3-(pyrimidin-2-yl)propanoate] stands less than 1 µM; under `CC(C)OC(=O)[C@@H](Cc1ncccn1)OC(=O)N[C@@H](C)c1ccc(C(F)(F)F)cc1Cl` [Compound 25, Propan-2-yl (2R)-2-({[(1S)-1-[2-chloro-4-(trifluoromethyl)phenyl]ethyl]carbamoyl}oxy)-3-(pyrimidin-2-yl)propanoate], less than 1 µM; under `CC(C)OC(=O)[C@@H](Cc1ncccn1)OC(=O)N[C@@H](C)c1ccc(C(F)(F)F)cc1` [Compound 23, Propan-2-yl (2R)-3-(pyrimidin-2-yl)-2-({[(1S)-1-[4-(trifluoromethyl)phenyl]ethyl]carbamoyl}oxy)propanoate], less than 1 µM.

Consider `CC(C)OC(=O)[C@@H](Cn1cncn1)OC(=O)N[C@@H](C)c1ccc(C(F)(F)F)c(F)c1` [Compound 9, Propan-2-yl (2R)-2-({[(1S)-1-[3-fluoro-4-(trifluoromethyl)phenyl]ethyl]carbamoyl}oxy)-3-(1H-1,2,4-triazol-1-yl)propanoate], for which the IC50 is less than 1 µM. As to `CC(C)OC(=O)[C@@H](Cc1ncccn1)OC(=O)N(C)[C@@H](C)c1ccc(C(F)(F)F)cc1Cl` [Compound 27, Propan-2-yl (2R)-2-({[(1S)-1-[2-chloro-4-(trifluoromethyl)phenyl]ethyl](methyl)carbamoyl}oxy)-3-(pyrimidin-2-yl)propanoate], the 50% inhibitory concentration (IC50) was in the range of 1 to 3 µM. On to `C[C@H](NC(=O)O[C@H](Cc1ncccn1)C(=O)O)c1ccc(C(F)(F)F)cc1` [Compound 24, (2R)-3-(Pyrimidin-2-yl)-2-({[(1S)-1-[4-(trifluoromethyl)phenyl]ethyl]carbamoyl}oxy)propanoic acid], for which the IC50 was in the range of 3 to 10 µM. For `COc1cc(C(F)(F)F)ccc1C(C)NC(=O)OC(Cc1ncccn1)C(=O)OC(C)C` (centres unmarked) [Compound 19, Propan-2-yl 2-[({1-[2-methoxy-4-(trifluoromethyl)phenyl]ethyl}carbamoyl)oxy]-3-(pyrimidin-2-yl)propanoate], the IC50 was less than 1 µM.

For the compound `CC(C)OC(=O)[C@@H](Cn1cncn1)OC(=O)N[C@@H](C)c1ccc(COc2ccccc2)cc1` [Compound 8, Propan-2-yl (2R)-2-({[(1S)-1-[4-(phenoxymethyl)phenyl]ethyl]carbamoyl}oxy)-3-(1H-1,2,4-triazol-1-yl)propanoate], the IC50 is 1 to 3 µM.

Regarding `CC(C)OC(=O)C(Cc1ncccn1)OC(=O)NC(C)c1ccc(C(F)(F)F)cc1Cl` (centres unmarked) [Compound 16, Isopropyl 2-[1-[2-chloro-4-(trifluoromethyl)phenyl]ethylcarbamoyloxy]-3-pyrimidin-2-yl-propaneate], the IC50 is less than 1 µM. Consider `CC(C)OC(=O)[C@@H](Cn1cncn1)OC(=O)N[C@@H](C)c1ccc(OCC(F)(F)F)cc1` [Compound 7, Propan-2-yl (2R)-3-(1H-1,2,4-triazol-1-yl)-2-({[(1S)-1-[4-(2,2,2-trifluoroethoxy)phenyl]ethyl]carbamoyl}oxy)propanoate], for which the IC50 was less than 1 µM. Still for that read-out and setting: under `CCc1cc(C(F)(F)F)ccc1C(C)NC(=O)OC(Cc1ncccn1)C(=O)OC(C)C` (centres unmarked) [Compound 22, Propan-2-yl 2-[({1-[2-ethyl-4-(trifluoromethyl)phenyl]ethyl}carbamoyl)oxy]-3-(pyrimidin-2-yl)propanoate] stands less than 1 µM.
